Assays:
[1] = target: T1, serotonin reuptake (5HT uptake) (Rattus norvegicus, UniProt P31652); test: Serotonin reuptake inhibition (5HT uptake inhibition) in rat brain synaptosomes; assay type: biochemical; details: synaptosomes from male rats' brains
T1 construct: These vesicular particles were isolated from the hypothalamus of male rats' brains for 5HT uptake; from tissue; host or cells: rat brain synaptosomes (P2 fraction; cerebral cortex / hypothalamus of male rats)
Text: a) Tests on Serotonin Reuptake Inhibition
In order to be able to carry out these in vitro studies, synaptosomes from rats' cerebral cortices were freshly isolated. A “P2” fraction prepared according to Gray and Whittaker's instructions (E. G. Gray and V. P. Whittaker (1962) J. Anat. 76, 79-88) was used in each case. These vesicular particles were isolated from the hypothalamus of male rats' brains for 5HT uptake.
A detailed description of the method may be found in the literature (M. Ch. Frink, H.-H. Hennies, W. Englberger, M. Haurand and B. Wilffert (1996) Arzneim.-Forsch./Drug Res. 46 (III), 11, 1029-1036).

[2] = target: T2, noradrenalin reuptake (NA uptake) (Rattus norvegicus, UniProt Q9WTR4); test: Noradrenalin reuptake inhibition (NA uptake inhibition) in rat brain synaptosomes; assay type: biochemical; details: synaptosomes from male rats' brains
T2 construct: These vesicular particles were isolated from the hypothalamus of male rats' brains for NA uptake; from tissue; host or cells: rat brain synaptosomes (P2 fraction; cerebral cortex / hypothalamus of male rats)
T2 sequence (Q9WTR4 1-597): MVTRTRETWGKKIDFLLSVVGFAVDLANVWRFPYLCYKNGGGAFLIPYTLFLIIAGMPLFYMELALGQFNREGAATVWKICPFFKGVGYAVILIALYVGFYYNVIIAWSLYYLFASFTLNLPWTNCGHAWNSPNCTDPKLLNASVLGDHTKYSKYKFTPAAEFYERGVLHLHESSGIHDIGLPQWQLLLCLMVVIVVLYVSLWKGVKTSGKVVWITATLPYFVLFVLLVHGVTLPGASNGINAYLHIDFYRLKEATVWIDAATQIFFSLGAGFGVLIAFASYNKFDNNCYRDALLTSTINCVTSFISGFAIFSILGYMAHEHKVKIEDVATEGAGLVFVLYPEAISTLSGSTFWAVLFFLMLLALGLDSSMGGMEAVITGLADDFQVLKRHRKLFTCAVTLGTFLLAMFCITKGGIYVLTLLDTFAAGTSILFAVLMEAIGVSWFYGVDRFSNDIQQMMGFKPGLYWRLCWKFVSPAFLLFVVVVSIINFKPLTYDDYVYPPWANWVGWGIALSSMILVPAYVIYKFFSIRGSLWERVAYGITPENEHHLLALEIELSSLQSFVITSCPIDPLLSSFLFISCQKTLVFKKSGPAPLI
Text: b) Tests on Noradrenalin Reuptake Inhibition
In order to be able to carry out these in vitro studies, synaptosomes from rats' cerebral cortices were freshly isolated. A “P2” fraction, prepared according to Gray and Whittaker's instructions (E. G. Gray and V. P. Whittaker (1962) J. Anat. 76, 79-88) was used in each case. These vesicular particles were isolated from the hypothalamus of male rats' brains for NA uptake.
A detailed description of the method may be found in the literature (M. Ch. Frink, H.-H. Hennies, W. Englberger, M. Haurand and B. Wilffert (1996) Arzneim.-Frosch./Drug Res. 46 (III), 11, 1029-1036).

[3] = system: binding site 2 of the sodium channel (batrachotoxin (BTX) binding site); test: Binding test on the sodium channel, binding site 2 (BTX bond), [3H]-batrachotoxinin A20 α-benzoate as ligand; parameters: species or system rat; details: 10 μM; rat cerebrocortex synaptosomes; ligand 10 nM; 25° C., 120 min

T1 sequence (P31652 whole entry): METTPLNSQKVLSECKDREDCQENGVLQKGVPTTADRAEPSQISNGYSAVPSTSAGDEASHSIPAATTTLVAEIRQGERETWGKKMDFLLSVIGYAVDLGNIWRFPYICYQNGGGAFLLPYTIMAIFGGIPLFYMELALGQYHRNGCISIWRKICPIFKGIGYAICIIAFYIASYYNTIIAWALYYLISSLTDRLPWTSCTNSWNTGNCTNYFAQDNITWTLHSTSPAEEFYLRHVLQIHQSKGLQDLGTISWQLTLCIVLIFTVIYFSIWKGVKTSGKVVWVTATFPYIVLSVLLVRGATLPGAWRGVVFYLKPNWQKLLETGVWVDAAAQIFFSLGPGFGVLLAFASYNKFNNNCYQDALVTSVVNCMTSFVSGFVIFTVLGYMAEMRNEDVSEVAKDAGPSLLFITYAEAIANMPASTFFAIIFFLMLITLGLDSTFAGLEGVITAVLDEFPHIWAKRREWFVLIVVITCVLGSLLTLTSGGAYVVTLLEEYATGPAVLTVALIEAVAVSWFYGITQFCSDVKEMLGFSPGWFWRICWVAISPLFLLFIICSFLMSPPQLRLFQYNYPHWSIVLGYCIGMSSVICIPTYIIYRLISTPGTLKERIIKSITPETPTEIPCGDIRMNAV

Which results are given for O=C(c1ccc(SC(F)(F)F)cc1)N1CCC(c2c[nH]c3ccccc23)C1 (stereo not shown) [Compound 18, [3-(1H-indol-3-yl)-pyrrolidin-1-yl]-(4-trifluoromethylsulphanyl-phenyl)-methanone]?
inhibition at 10 µM [1]: 49%; inhibition at 10 µM [2]: 49%

What does the source list for O=C(c1ccc([N+](=O)[O-])cc1Cl)N1CCC(c2cn(Cc3cccc(F)c3)c3ccccc23)C1 (stereo not shown) [Compound 20, (2-chloro-4-nitro-phenyl)-{3-[1-(3-fluoro-benzyl)-1H-indol-3-yl]-pyrrolidin-1-yl}-methanone]?
inhibition at 10 µM [1]: 89%; inhibition at 10 µM [2]: 43%; BTX bond, % inhibition [10 μM] [3]: 91%

O=[N+]([O-])c1ccc(S(=O)(=O)N2CCC(c3c[nH]c4ccccc34)C2)cc1 (stereo not shown) [Compound 24, 3-[1-(4-nitro-benzenesulphonyl)-pyrrolidin-3-yl]-1H-indole] was tested. Which inhibition at 10 µM [1] did it give?
The inhibition at 10 µM was 53%.

And the inhibition at 10 µM [2]?
The inhibition at 10 µM was 59%.

Which results are given for Cn1cc(C2CCN(C(=O)C=Cc3ccccc3)C2)c2ccccc21 (stereo not shown) [Compound 26, 1-[3-(1-methyl-1H-indol-3-yl)-pyrrolidin-1-yl]-3-phenyl-propenone]?
5HT uptake, % inhibition [10 μM] [1]: 62%; NA-uptake, inhibition [10 μM] [2]: 44; BTX bond, % inhibition [10 μM] [3]: 93%

CCn1cc(C2CCN(C(=O)c3cccnc3)C2)c2ccccc21 (stereo not shown) [Compound 28] was tested. Which “5HT uptake, % inhibition [10 μM]” value [1] did it give?
Its value is 41%.

And the “NA-uptake, inhibition [10 μM]” value [2]?
The value was 52.

Which results are given for Cc1ccc(F)c(C(=O)N2CCC(c3cn(Cc4ccc(C#N)cc4)c4ccccc34)C2)c1Cl (stereo not shown) [Compound 31, 4-{3-[1-(2-chloro-6-fluoro-3-methyl-benzoyl)-pyrrolidin-3-yl]-indol-1-ylmethyl}-benzonitrile]?
inhibition at 10 µM [1]: 62%; inhibition at 10 µM [2]: 41%; BTX bond, % inhibition [10 μM] [3]: 92%

For N#Cc1ccc(Cn2cc(C3CCN(C(=O)c4ccc5nonc5c4)C3)c3ccccc32)cc1 (stereo not shown) [Compound 34, 4-{3-[1-(benzo[1,2,5]oxadiazole-5-carbonyl)-pyrrolidin-3-yl]-indol-1-ylmethyl}-benzonitrile], which inhibition at 10 µM [1] is on record?
The inhibition at 10 µM was 57%.

And the inhibition at 10 µM [2]?
The inhibition at 10 µM was 49%.

What about the “BTX bond, % inhibition [10 μM]” value [3] of the same molecule?
The value was 91%.

CCn1cc(C2CCN(C(=O)CCc3ccccc3)C2)c2ccccc21 (stereo not shown) [Compound 35, 1-[3-(1-ethyl-1H-indol-3-yl)-pyrrolidin-1-yl]-3-phenyl-propan-1-one] was tested. Which inhibition at 10 µM [1] did it give?
The inhibition at 10 µM was 68%.

And the inhibition at 10 µM [2]?
The inhibition at 10 µM was 48%.

What about the “BTX bond, % inhibition [10 μM]” value [3] of the same molecule?
The value was 84%.

Which results are given for CSc1ncccc1C(=O)N1CCC(c2cn(C)c3ccccc23)C1 (stereo not shown) [Compound 37, [3-(1-methyl-1H-indol-3-yl)-pyrrolidin-1-yl]-(2-methylsulphanyl-pyridin-3-yl)-methanone]?
inhibition at 10 µM [1]: 64%; inhibition at 10 µM [2]: 43%

Which inhibition at 10 µM [2] does the source give for CCn1cc(C2CCN(C(=O)c3cc(C(F)(F)F)ccc3Cl)C2)c2ccccc21 (stereo not shown) [Compound 38, (2-chloro-5-trifluoromethyl-phenyl)-[3-(1-ethyl-1H-indol-3-yl)-pyrrolidin-1-yl]-methanone] here?
Its inhibition at 10 µM is 49%.

What about the “BTX bond, % inhibition [10 μM]” value [3] of the same molecule?
Its value is 89%.

Which results are given for O=C(c1ccc([N+](=O)[O-])cc1Cl)N1CCC(c2cn(Cc3ccc(C(F)(F)F)cc3)c3ccccc23)C1 (stereo not shown) [Compound 39]?
5HT uptake, % inhibition [10 μM] [1]: 43%; NA-uptake, inhibition [10 μM] [2]: 41; BTX bond, % inhibition [10 μM] [3]: 90%

What does the source list for Cn1cc(C2CCN(C(=O)c3cccnc3Cl)C2)c2ccccc21 (stereo not shown) [Compound 40, (2-chloro-pyridin-3-yl)-[3-(1-methyl-1H-indol-3-yl)-pyrrolidin-1-yl]-methanone]?
inhibition at 10 µM [1]: 66%; inhibition at 10 µM [2]: 43%

COCC(=O)N1CCC(c2cn(Cc3cccc(OC)c3)c3ccccc23)C1 (stereo not shown) [Compound 41, 2-methoxy-1-{3-[1-(3-methoxy-benzyl)-1H-indol-3-yl]-pyrrolidin-1-yl}-ethanone] was tested. Which inhibition at 10 µM [1] did it give?
Its inhibition at 10 µM is 44%.

What about the inhibition at 10 µM [2] of the same molecule?
The inhibition at 10 µM was 43%.

What does the source list for Cc1nc(C(F)(F)F)ccc1C(=O)N1CCC(c2cn(Cc3cccc(F)c3)c3ccccc23)C1 (stereo not shown) [Compound 42, {3-[1-(3-fluoro-benzyl)-1H-indol-3-yl]-pyrrolidin-1-yl}-(2-methyl-6-trifluoromethyl-pyridin-3-yl)-methanone]?
inhibition at 10 µM [1]: 82%; inhibition at 10 µM [2]: 58%; BTX bond, % inhibition [10 μM] [3]: 96%

Which “5HT uptake, % inhibition [10 μM]” value [1] does the source give for C#CCn1cc(C2CCN(C(=O)c3cccnc3SC)C2)c2ccccc21 (stereo not shown) [Compound 44, (2-methylsulphanyl-pyridin-3-yl)-[3-(1-prop-2-inyl-1H-indol-3-yl)-pyrrolidin-1-yl]-methanone] here?
The value was 60%.

What about the “NA-uptake, inhibition [10 μM]” value [2] of the same molecule?
Its value is 49.

What does the source list for Cn1cc(C2CCN(C(=O)c3ccc(-c4ccccc4)cc3)C2)c2ccccc21 (stereo not shown) [Compound 45, Biphenyl-4-yl-[3-(1-methyl-1H-indol-3-yl)-pyrrolidin-1-yl]-methanone]?
inhibition at 10 µM [1]: 80%; inhibition at 10 µM [2]: 43%; BTX bond, % inhibition [10 μM] [3]: 82%

Which inhibition at 10 µM [1] does the source give for COc1cccc(Cn2cc(C3CCN(C(=O)Cc4ccc(Cl)cc4)C3)c3ccccc32)c1 (stereo not shown) [Compound 46, 2-(4-chloro-phenyl)-1-{3-[1-(3-methoxy-benzyl)-1H-indol-3-yl]-pyrrolidin-1-yl}-ethanone] here?
Its inhibition at 10 µM is 46%.

And the inhibition at 10 µM [2]?
The inhibition at 10 µM was 20%.

And the “BTX bond, % inhibition [10 μM]” value [3]?
The value was 88%.

What does the source list for CCn1cc(C2CCN(C(=O)c3ccc(C(F)(F)F)cc3)C2)c2ccccc21 (stereo not shown) [Compound 48, [3-(11-ethyl-1H-indol-3-yl)-pyrrolidin-1-yl]-(4-trifluoromethyl-phenyl)-methanone]?
5HT uptake, % inhibition [10 μM] [1]: 43%; NA-uptake, inhibition [10 μM] [2]: 40

Which results are given for CC#CCn1cc(C2CCN(CC(=O)Nc3cc(C)nn3C)C2)c2ccccc21 (stereo not shown) [Compound 49, 2-[3-(1-but-2-ynyl-1H-indol-3-yl)-pyrrolidin-1-yl]-N-(2,5-dimethyl-2H-pyrazol-3-yl)-acetamide]?
inhibition at 10 µM [1]: 68%; inhibition at 10 µM [2]: 100%

CCn1cc(C2CCN(CC(=O)Nc3scc(C)c3C#N)C2)c2ccccc21 (stereo not shown) [Compound 52, N-(3-cyano-4-methyl-thiophen-2-yl)-2-[3-(1-ethyl-1H-indol-3-yl)-pyrrolidin-1-yl]-acetamide] was tested. Which inhibition at 10 µM [1] did it give?
The inhibition at 10 µM was 79%.

And the inhibition at 10 µM [2]?
Its inhibition at 10 µM is 54%.

Source: patent US7368470B2, “Substituted 3-pyrrolidine-indole derivatives” (Gruenenthal GmbH, priority 2003, dated 2008)
